Test system: spontaneously hypertensive rats (SHR)
Assay: Anti-hypertensive effect on mean arterial blood pressure of SHR
Format: in vivo, rat
Method: In vivo studies on the effect of peptides of the present invention were performed on adult male spontaneously hypertensive rats, and normotensive Wistar rats (Rattus novergicus) weighing 250 to 350 g. Animals had free access to chow (Nuvilab) and water, and were submitted to a light-dark cycle of 12 hours each. Procedures involving animals and their care were conducted according to Giles [Giles A. R. Guidelines for the use of animals in biomedical research. Thromb. Haemost. 58: 1078-1084, 1987]. […]
The cardiovascular parameters (pulse arterial pressure (PAP), mean arterial pressure (MAP), and heart rate (HR)) were monitored by a solid-state strain gauge transducer connected to a computer through a data acquisition system (MP 100; BIOPAC Systems, Inc, Santa Barbara, Calif., USA). The PAP, MAP and HR were continuously presented in different monitor channels and recorded in the computer hard disk for late analysis.
Before drug administration, cardiovascular parameters of the rats were monitored for 40 minutes. […] Arterial blood pressure and heart frequency were continuously monitored for 360 minutes.
Results were expressed as the mean variation of MAP±standard deviation. […]

Row | Molecule | molar dose needed for anti-hypertensive activity relative to the peptides (e.g. 10 μmoles/Kg, the dose that inhibits ACE in vivo) | dose of optimum anti-hypertensive activity (effect is reduced at higher and at lower doses)
1 | CC(CS)C(=O)N1CCC[C@@H]1C(=O)O (stereo partly drawn) [captopril, D-3-mercapto-2-methyl-1-oxopropyl-L-proline, reference compound] | approximately 1000 fold | 
2 | <ENWPHPQIPP [SEQ ID NO 8] |  | ~71 nmoles/Kg of body weight

Reference: patent publication US20100035822A1, “PROLINE-RICH PEPTIDES, PHARMACEUTICAL COMPOSITION, USE OF ONE OR MORE PEPTIDES AND METHOD OF TREATMENT” (priority 2006, published 2010)
